One may read the IC50 as the point on the concentration scale where inhibition reaches its midpoint. A lower IC50 goes with greater potency in that assay.

The source of these data is patent US6713506B2, “Tea polyphenol esters and analogs thereof for cancer prevention and treatment” (University of South Florida, priority 2000, dated 2004).

Experiment [1] deals with T1, proteasomal chymotrypsin-like activity in Jurkat T cell extract (Homo sapiens, UniProt P28074).
T1 construct: endogenous in cells; host or cells: Jurkat T cells (whole cell extract or intact cells)
Briefly: Proteasome chymotrypsin-like activity in Jurkat T cell free extract. The experiment is classed as biochemical. The procedure: FIG. 9. Inhibition of the proteasome activity by tannic acid using a cell free extract. A). The whole cell extract (6.0 μg) from Jurkat T cells is incubated for 90 min at 37° C. with 20 μM of a fluorogenic peptide substrate, Suc-Leu-Leu-Val-Tyr-AMC for the chymotrypsin-like activity, Z-Leu-Leu-Glu-AMC for peptidyl-glutamyl peptide-hydrolyzing (PGPH) activity, and Z-Gly-Gly-Arg-AMC for the trypsin-like activity, in 100 μl of the assay buffer with (filled bars) or without (empty bars) 1 μg/ml of tannic acid. The hydrolyzed AMCs are quantified as described in FIG. 2. B). […] Experiment is performed as described in FIG. 9A.
Inhibition of the proteasome activity with cell free extracts by tea polyphenols—The whole cell extract (3.5 μg) from Jurkat T cells is incubated for 90 min at 37° C. with 20 μM of a fluorogenic peptide substrate, Suc-Leu-Leu-Val-Tyr-AMC (for the chymotrypsin-like activity), Z-Leu-Leu-Glu-AMC [peptidyl-glutamyl peptide-hydrolyzing (PGPH) activity; Calbiochem], and Z-Gly-Gly-Arg-AMC (for the trypsin-like activity; Bachem), in 100 μl of the assay buffer with or without 10 μM EGCG or EGC. The hydrolyzed AMCs are quantified as described above.

A further experiment addresses T2, purified calpain I (Homo sapiens, UniProt P07384).
T2 construct: 3 μg purified calpain I (Human Erythrocytes, Calbiochem) is incubated; purchased Calbiochem; host or cells: human erythrocytes (tissue-purified)
T2 sequence (P07384 1-714): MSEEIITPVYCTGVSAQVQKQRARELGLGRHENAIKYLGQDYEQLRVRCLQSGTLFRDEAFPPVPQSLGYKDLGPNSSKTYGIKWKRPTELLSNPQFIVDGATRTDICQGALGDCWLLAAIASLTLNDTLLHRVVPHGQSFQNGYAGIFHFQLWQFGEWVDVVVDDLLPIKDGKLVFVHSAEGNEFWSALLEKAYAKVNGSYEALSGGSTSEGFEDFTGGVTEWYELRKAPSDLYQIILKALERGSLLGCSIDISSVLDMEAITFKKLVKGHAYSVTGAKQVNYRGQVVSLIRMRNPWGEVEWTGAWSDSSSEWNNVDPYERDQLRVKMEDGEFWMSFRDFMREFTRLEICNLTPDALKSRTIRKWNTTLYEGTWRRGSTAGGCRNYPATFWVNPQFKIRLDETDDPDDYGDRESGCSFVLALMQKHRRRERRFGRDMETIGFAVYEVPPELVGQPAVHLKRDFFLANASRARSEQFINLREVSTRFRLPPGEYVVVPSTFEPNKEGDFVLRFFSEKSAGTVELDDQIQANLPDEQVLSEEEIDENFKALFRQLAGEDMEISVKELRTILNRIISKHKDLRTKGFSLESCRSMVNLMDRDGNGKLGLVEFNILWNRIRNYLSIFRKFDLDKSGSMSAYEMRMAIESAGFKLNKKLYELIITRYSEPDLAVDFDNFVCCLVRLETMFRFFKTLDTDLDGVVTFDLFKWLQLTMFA
T2 sequence (P04632 1-268 partner): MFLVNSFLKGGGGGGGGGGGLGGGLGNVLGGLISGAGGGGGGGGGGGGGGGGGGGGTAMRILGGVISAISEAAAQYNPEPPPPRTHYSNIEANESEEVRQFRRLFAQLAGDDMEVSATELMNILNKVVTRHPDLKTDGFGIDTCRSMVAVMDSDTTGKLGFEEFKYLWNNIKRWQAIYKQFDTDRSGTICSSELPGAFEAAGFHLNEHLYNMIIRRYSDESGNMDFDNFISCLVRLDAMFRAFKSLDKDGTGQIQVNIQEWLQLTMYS
Briefly: Calpain I activity assay. It is filed as biochemical. As to conditions: for inhibition of purified calpain I activity (in words): 10 μM, FIG. 16A. The procedure:
FIG. 8. […] A). […] Initially, 0.5 μg of purified 20S proteasome is incubated with 20 μM of a fluorogenic peptide substrate, Suc-Leu-Leu-Val-Tyr-AMC, for 30 min at 37° C. in 100 μl of assay buffer (20 mM Tris-HCl, pH 8.0) with various concentrations of tannic acid. After incubation, the reaction mixture is diluted to 200 μl with the assay buffer, followed by measurement of the hydrolyzed 7-amido-4-methyl-coumarin (AMC) groups using a fluorometer with an excitation filter of 380 nm and an emission filter of 460 nm. B). […] Tannic acid (0.3 μg/ml) and Glucose (180 μg/ml) are used in the proteasome activity assay as described above. C). […] Purified calpain I (3 μg) protein is incubated with 40 μM of a fluorogenic peptide substrate, Suc-Leu-Tyr-AMC, for 30 min at 37° C. in 100 μl of assay buffer (50 mM Tris-HCl, pH 7.5, containing 50 mM NaCl, 1 mM EDTA, 1 mM EGTA, 5 mM β-Mercaptoethanol, 5 mM CaCl2, and 0.1% CHAPS) in the absence (control) or presence of 5 μg/ml of tannic acid or 0.18 μg/ml of calpeptin (calpain inhibitor).

Experiment [2] concerns the target T3, proteasome chymotrypsin-like activity in living Jurkat cells (Homo sapiens, UniProt P28074).
T3 construct: endogenous in cells; host or cells: Jurkat T cells (whole cell extract or intact cells)
Kind of experiment: Proteasome chymotrypsin-like activity in living Jurkat T cells. The experiment is classed as cell-based. The procedure: FIG. 10. Inhibition of the chymotrypsin-like activity by tannic acid in intact Jurkat T cells. Intact Jurkat T cells (1×10^5 cells/ml/well) are cultured in 24-well plates. These cells are first incubated for 12 h with various concentrations of tannic acid as indicated, followed by an additional 2 h-incubation with a fluorogenic peptide substrate, Suc-Leu-Leu-Val-Tyr-AMC for the chymotrypsin-like activity. Then, cell medium (200 μl per sample) is collected and used for measurement of free AMCs.
Inhibition of the proteasome activity in living cells by tea polyphenols—To measure inhibition of the chymotrypsin-like activity in living tumor cells, Jurkat T (1×10^5 cells/ml/well), MCF7 or PC-3 cells (1×10^4 cells/ml/well) are cultured in 24-well plates. These cells are first incubated for 12 h with various concentrations of EGCG, EGC, β-lactone or LLnL, followed by an additional 2 h-incubation with fluorogenic peptide substrates, Suc-Leu-Leu-Val-Tyr-AMC for the chymotrypsin-like activity and Z-Gly-Gly-Arg-AMC for the trypsin-like activity. After that, cell medium (200 μl per sample) is collected and used for measurement of free AMCs.

Entries after “also recorded” stand apart in the source; their conditions may differ.

Turning to `Oc1cc(O)c2c(c1)O[C@H](c1cc(O)c(O)c(O)c1)[C@H](O)C2` [EGC, (−)-epigallocatechin], the “inhibition of proteasomal chymotrypsin-like activity in Jurkat T cell extract (in words)” value (“inhibition … in Jurkat T cell extract (in words)” for short) in experiment [1] is recorded as “little effect”. For the same compound, at purified calpain I, the “inhibition of purified calpain I activity (in words)” value is listed as “Neither EGCG nor EGC at 10 μM inhibits”. For the same compound, the “inhibition of chymotrypsin-like activity in living/intact Jurkat cells (in words)” value in experiment [2] is recorded as “much less effect”.

In the case of `O=C(O[C@@H]1Cc2c(O)cc(O)cc2O[C@@H]1c1cc(O)c(O)c(O)c1)c1cc(O)c(O)c(O)c1` [EGCG, (−)-epigallocatechin-3-gallate], the “inhibition … in Jurkat T cell extract (in words)” value in experiment [1] is recorded as “most potent proteasome inhibitor among all the tested polyphenols”. Moreover, the “inhibition of proteasomal chymotrypsin-like activity” value in experiment [1] (10 μM, Jurkat T cell extract) is reported as about 70%. The “inhibition of purified calpain I activity (in words)” value at purified calpain I is recorded as “Neither EGCG nor EGC at 10 μM inhibits”. The “inhibition of purified calpain activity (in words)” value at purified calpain I (FIG. 3B: EGCG 10 μM, calpeptin 1 μM) is “but not EGCG, is able to inhibit”. Also, in experiment [2], the “inhibition of chymotrypsin-like activity in living/intact Jurkat cells (in words)” value is reported as “inhibitable”. Moreover, the “inhibition of chymotrypsin-like activity” value in experiment [2] (10 μM, living Jurkat cells) is given as 24%. In addition, in experiment [2] (12 h preincubation), the half-maximal inhibitory concentration (IC50) was found to be 18 µM.

Turning to `O=C(OC[C@H]1O[C@@H](OC(=O)c2cc(O)c(O)c(OC(=O)c3cc(O)c(O)c(O)c3)c2)[C@H](OC(=O)c2cc(O)c(O)c(OC(=O)c3cc(O)c(O)c(O)c3)c2)[C@@H](OC(=O)c2cc(O)c(O)c(OC(=O)c3cc(O)c(O)c(O)c3)c2)[C@@H]1OC(=O)c1cc(O)c(O)c(OC(=O)c2cc(O)c(O)c(O)c2)c1)c1cc(O)c(O)c(OC(=O)c2cc(O)c(O)c(O)c2)c1` [tannic acid], in experiment [1], the “inhibition … in Jurkat T cell extract (in words)” value is recorded as “Dose-dependent inhibition; also recorded: inhibited by tannic acid in a dose-dependent manner”. Further, the “inhibition of calpain activity (in words)” value on purified calpain I (tannic acid 5 μg/ml) is reported as “does not inhibit”. For the same compound, the “inhibition of chymotrypsin-like activity in living/intact Jurkat cells (in words)” value in experiment [2] is “inhibition”.
